Test results as given in patent US11331272B2, “Hyperstabilized liposomes increase targeting of mitotic cells” (TEMASEK LIFE SCIENCES LABORATORY LIMITED, priority 2017, dated 2022).

Columns and labels:
[1] = Toxicity / body weight in HCT116 xenografted mice; conditions: NCr Nude, mouse, in vivo, intravenous, tail vein injection, read-out: maximum tolerated dose
Procedure: (§1) Free BI 2536 (dissolved in 0.1 N HCl, saline) or the indicated liposomal BI 2536 formulations were administered by slow tail vein injection 7 days post grafting with HCT116. Tumor volumes were at least 150 mm^3 and calculated using length×width^2×0.5. All measurements were performed using vernier calipers and mice were weighed every other day. Mice were subcutaneously hydrated with 1 ml Hartmann's solution daily for 5 days post treatment to ensure that the mice were fully hydrated.

[2] = Hexanol extraction of BI 2536 from salt solutions; type: physicochemical; conditions: pH 3
Procedure: BI 2536 was first dissolved in ethanol and then coated onto 1.5 ml microfuge tubes by spin drying. BI 2636-coated tubes were then further dried overnight under high vacuum before resuspending in the indicated salt solutions to achieve a final concentration of 500 μM. To ensure complete dissolution of coated BI2536, tubes were briefly vortexed and subjected to bath sonication for 1 minute before being used for characterization.
BI 2536 from 1 ml of the indicated buffer was extracted with 100 μl 1-hexanol (Merck) by brief shaking for 1 hour. Hexanol and buffer layers were separated by brief centrifugation and 20 ul of the hexanol layer was analyzed for fluorescence intensity using the Tecan plate reader (Ex: 330 nm, Em: 370 nm).

HCT116 xenografts = assay: Efficacy study in HCT116 xenografted mice (tumor volume, complete responses, survival); type: in vivo, NCr Nude mice; conditions: free 100 mg/kg, responders/treated mice
Procedure: All animal experiments were approved by the Institutional Animal Care and Use Committee of Temasek Life Sciences Laboratory and National University of Singapore (NUS). Female NCr Nude mice (Ages 5-8 weeks) were purchased from (Singapore/InVivos) and subcutaneously xenografted with HCT116 cells. HCT116 cells were grown as described above in 600 cm^2 dishes (Corning) and each dish was used to graft 5 mice when confluence reached ˜80%.
as §1

CC[C@@H]1C(=O)N(C)c2cnc(Nc3ccc(C(=O)NC4CCN(C)CC4)cc3OC)nc2N1C1CCCC1 [Free Drug, BI 2536]
MTD [1]: 100 mg/kg | hexanol-extraction efficiency as anion concentration rises ([2]; anions M, C, H): decreased | hexanol-extraction efficiency as anion concentration rises ([2]; anions P, A): increased | Complete Responses, Double Dose (HCT116 xenografts; doses at days 0 and 7, liposomal 340 mg/kg): 0/8 | Complete Responses, Single Dose (HCT116 xenografts; single dose at day 0, liposomal 340 mg/kg): 0/10
